Entries after “also recorded” stand apart in the source; their conditions may differ. Like-named read-outs stand apart in the source and are kept apart here.
Tests used:
[1] = target: T1, recombinant human RPE65 and LRAT (visual cycle isomerase) (Homo sapiens, UniProt Q16518); assay: Human in vitro isomerase inhibition assay; conditions: comparison compounds
T1 sequence (Q16518 2-533): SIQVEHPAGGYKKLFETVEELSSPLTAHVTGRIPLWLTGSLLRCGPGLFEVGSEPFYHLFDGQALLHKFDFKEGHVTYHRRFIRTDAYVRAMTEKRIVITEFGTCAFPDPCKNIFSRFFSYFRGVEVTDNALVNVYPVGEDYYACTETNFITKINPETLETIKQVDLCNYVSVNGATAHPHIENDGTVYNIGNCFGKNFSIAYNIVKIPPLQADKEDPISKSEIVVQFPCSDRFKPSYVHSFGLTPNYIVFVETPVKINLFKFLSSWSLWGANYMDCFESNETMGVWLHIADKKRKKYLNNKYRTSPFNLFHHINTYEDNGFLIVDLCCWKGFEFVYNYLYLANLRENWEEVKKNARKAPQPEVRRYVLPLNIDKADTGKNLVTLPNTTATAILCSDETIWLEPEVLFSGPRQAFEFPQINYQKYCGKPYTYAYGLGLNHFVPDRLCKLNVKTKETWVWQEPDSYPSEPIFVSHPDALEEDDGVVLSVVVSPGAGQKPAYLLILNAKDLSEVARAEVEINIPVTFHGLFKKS

[2] = tested on: isomerase (recovery of 11-cis-retinal after bleaching); assay: In vivo murine isomerase assay; conditions: mice, oral gavage
Protocol: The capability of compounds described herein to inhibit isomerase was determined by an in vivo murine isomerase assay. […] The recovery of 11-cis-retinal after bleaching can be used to estimate the activity of isomerase in vivo. Delayed recovery, as represented by lower 11-cis-retinal oxime levels, indicates inhibition of isomerization reaction.
Mice were gavaged with the test compound. […] The mice were allowed to recover 2 hours in the dark. The animals were then sacrificed by carbon dioxide inhalation. Retinoids were extracted from the eye and the regeneration of 11-cis-retinal was assessed at various time intervals.
After the mice were sacrificed, the eyes were immediately removed and placed in liquid nitrogen for storage.
The eyes were placed in 500 μL of bis-tris propane buffer (10 mM, pH˜7.3) and 20 μL of 0.8M hydroxile amine (pH˜7.3). The eyes were cut up into small pieces with small iris scissors and then thoroughly homogenized at 30000 rpm with a mechanical homogenizer (Polytron PT 1300 D) in the tube until no visible tissue remained. 500 μL of methanol and 500 μL of heptane were added to each tube. The tubes were attached to a vortexer so that the contents were mixed thoroughly for 15 minutes in room temperature. The organic phase was separated from the aqueous phase by centrifugation for 10 min at 13K rpm, 4° C. 240 μL of the solution from the top layer (organic phase) was removed and transferred to clean 300 μl glass inserts in HPLC vials using glass pipette and the vials were crimped shut tightly.
The samples were analyzed on an Agilent 1100 HPLC system with normal phase column: SILICA (Beckman Coutlier, dp 5 μm, 4.6 mM×250 mM). […] Loading volume for each sample was 100 μA detection wavelength was 360 nm. The area under the curve for 11-cis retinal oxime was calculated by Agilent Chemstation software and was recorded manually. Data processing was performed using Prizm software.
Positive control mice (no compound administered) were sacrificed fully dark-adapted and the eye retinoids analyzed. Light (bleached) control mice (no compound administered) were sacrificed and retinoids isolated and analyzed immediately after light treatment.
A time course study was performed to determine the isomerase inhibitory activity of the test compound. […] The animals were then “photo-bleached” (5000 Lux white light for 10 minutes) at 2, 4, 8, 16 and 24 hours after dosing, and returned to darkness to allow recovery of the 11-cis-retinal content of the eyes. Mice were sacrificed 2 hours after bleaching, eyes were enucleated, and retinoid content is analyzed by HPLC.
Recovery control mice (vehicle-only treated) were light-treated and left to recover for 2 hours in the dark before sacrifice and analysis. Light control mice (vehicle only treated) were sacrificed for analysis immediately after photo-bleaching.
An in vivo dose response isomerase inhibition study was performed with test compound. […] Recovery and retinoid analysis were performed as described above. Dark control mice were vehicle-only treated, sacrificed fully dark adapted without light treatment, and analyzed. Recovery control mice and light control mice were included in the study as per the initial phase.

[3] = tested on: regeneration of 11-cis-retinal; assay: Single dose time course in the in vivo isomerase assay at 0.3 mg/kg; parameters: species or system BALB/c mice; conditions: BALB/c mice, single oral 0.3 mg/kg; for activity at 0.3 mg/kg: Mus musculus, read-out: Percent Control (Avg. % Inhibition)
Protocol: (§1) All test compounds were stored at room temperature, dessicated.
The compounds were dissolved in di-water at the concentration of 0.068 mg/mL and stored overnight at 4° C.
52 Male BALB/c mice (Charles River Laboratories) were used for this study. The mice were approximately 8 weeks at the initiation of dosing with an average body weight of 23 grams.
The day prior to dose administration 52 BALB/c mice were placed into a dark room and dark adapted for a minimum of 12 hours prior to dose administration. The mice were maintained in the dark for the duration of the study.
(§2) Each animal was removed from its cage and dosed accordingly to the study design in Table 10 (see below). Each animal was administered 0.1 mL of the appropriate test article or vehicle orally using a 1 mL syringe fitted with a 23 gauge oral gavage needle. At 2, 4, 6, 8, 16 or 24 hours following dose administration, animals were removed from the dark and exposed to 5000 Lux white light for 10 minutes to photobleach their eyes. Following the completion of the photobleach the animals were returned to the dark for 2 hours to allow for the regeneration of 11-cis-retinal in the eyes. Two hours after photobleaching each animal was euthanized with carbon dioxide followed by cervical dislocation, in the dark under red light. The light control group was euthanized immediately following photobleaching. Immediately following the cervical dislocation both eyes of each animal were removed and transferred into separate tubes, flash frozen in liquid nitrogen and stored in the dark at −80° C. until processing and analysis.
(§3) All sample processing procedures were performed in the dark under red light.
Extracted samples were analyzed using an Agilent 1100 HPLC system according to the procedure outlined in Table 12 (see below)
(§4) HPLC analysis of the eyes measures the peak area units of the 110cis-Ral-Oxime_syn. Signal.
(§5) Data analysis % inhibition (drug vs. recovery control). % control (drug vs. light control), and One-way ANOVA (followed by Tukey's Multiple Comparison) were performed using peak area units and performed by Prism software. Data are represented as mean and standard deviation.

[4] = tested on: retinal isomerase activity (recovery of 11-cis-retinal); assay: Comparative in vivo murine isomerase assay, dose response; parameters: species or system BALB/c mice; conditions: BALB/c mice, 2 hours; for Avg. % Inhibition: 11-cis-retinal, drug vs. recovery control
Protocol: as §1
On the day prior to dose administration compound A and compound D were weighed into new empty glass vials. The compounds were dissolved in di-water at the concentration of 0.833 mg/mL compound A and 0.892 mg/mL compound D, serially diluted into various concentrations, and stored overnight at 4° C.
56 Male BALB/c mice (Charles River Laboratories) were used for this study. The mice were approximately 8 weeks at the initiation of dosing with an average body weight of 24 grams.
The day prior to dose administration 56 BALB/c mice were placed into a dark room and dark adapted for a minimum of 12 hours prior to dose administration. The mice were maintained in the dark for the duration of the study.
as §2, with “Table 4” for “Table 10”, “appropriate compound” for “appropriate test article”, “vehicle via oral gavage” for “vehicle orally”, “needle. Two” for “needle. At 2, 4, 6, 8, 16 or 24”
as §3
Extracted samples were analyzed using an Agilent 1100 HPLC system according to the procedure outlined in Table 6 (see below)
as §4, §5

NCC[C@@H](O)c1cccc(NCC2CCCCC2)c1
IC50 [1]: 6.3 nM

NCC[C@@H](O)c1cccc(OCC2CCCOC2)c1 (mixture of isomers) [Example 3, (1R)-3-Amino-1-(3-((tetrahydro-2H-pyran-3-yl)methoxy)phenyl)propan-1-ol]
% Inhibition ([2]; dose 0.3 mg/kg, time 2 h): 75.1%

COC(=O)N1CCC(COc2cccc([C@H](O)CCN)c2)CC1 [Example 17, (R)-Methyl 4-((3-(3-amino-1-hydroxypropyl)phenoxy)methyl)piperidine-1-carboxylate]
% Inhibition ([2]; dose 1 mg/kg, time 4 h): 85%

NCCC(O)c1cccc(OCC2CCCCO2)c1 (stereo not shown) [compound D, reference compound]
significance of inhibitory effect on the recovery of 11-cis-retinal vs. recovery control ([3]; 2, 4, 6, 8, 16 and 24 hours, 0.3 mg/kg): not a statistically significant difference, P>0.05 for any time points; also recorded: no significant inhibitory effect at any time points; also recorded: did not exhibit a significant difference from the control group at any time point | activity at 0.3 mg/kg ([3]; time point 2 hours): 86.8% | activity at 0.3 mg/kg ([3]; time point 4 hours): 102% | activity at 0.3 mg/kg ([3]; time point 6 hours): 87.9% | activity at 0.3 mg/kg ([3]; time point 8 hours): 94.6% | activity at 0.3 mg/kg ([3]; time point 16 hours): 104% | activity at 0.3 mg/kg ([3]; time point 24 hours): 89.5% | Avg. % Inhibition ([4]; oral 0.3 mg/kg, 0.3 mg/kg): no inhibition | Avg. % Inhibition ([4]; oral 3 mg/kg, 3 mg/kg): same level of inhibition | significance of inhibitory effect on the recovery of 11-cis-retinal vs. recovery control ([4]; single oral dose 0.03-3 mg/kg): statistically significant difference, P<0.001 for 1 and 3 mg/kg dose levels; also recorded: significant inhibitory effect at 1 mg/kg and 3 mg/kg dose levels | IC50 (dose response experiment) ([4]; single oral dose): 0.59 mg/kg | dose at which 11-cis-retinal recovery was inhibited by 50% ([4]; single oral dose): 0.59 mg/kg | IC50 [1]: 24 nM

Reference: patent publication US9133154B2, “Substituted 3-phenylpropylamine derivatives for the treatment of ophthalmic diseases and disorders” (Acucela Inc., priority 2013, dated 2015)
